Assay results taken from ChEMBL document CHEMBL1128840, “Synthesis of myo-inositol-1-phosphatase inhibitors in which the phosphate group is replaced by less polar groups” (Bioorg Med Chem Lett, 1995).
pIC50: −log10 of the molar value.

Biological target: T1, Inositol monophosphatase 1 (Bos taurus, UniProt P20456)
T1 sequence (P20456 whole entry): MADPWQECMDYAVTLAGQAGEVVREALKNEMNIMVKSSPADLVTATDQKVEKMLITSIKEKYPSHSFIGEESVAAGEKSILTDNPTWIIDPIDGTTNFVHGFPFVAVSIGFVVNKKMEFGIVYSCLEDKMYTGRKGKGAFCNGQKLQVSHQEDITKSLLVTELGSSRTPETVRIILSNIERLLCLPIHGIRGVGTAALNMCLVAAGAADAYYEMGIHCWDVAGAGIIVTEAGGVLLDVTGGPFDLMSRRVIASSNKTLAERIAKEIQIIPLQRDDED
Test: Compound was tested for inhibitory activity against myo-inositol-1-phosphatase; compound was not active at 300 uM; call rule not given here

Compound	IC50
NC(=O)O[C@@H]1[C@H](O)C[C@@H](O)C[C@H]1OCCCCc1ccccc1O	Not Active

Biological target: T1, Inositol monophosphatase 1
Test: Inhibitory activity against myo-inositol-1-phosphatase

Compound	pIC50
CC(=O)NS(=O)(=O)O[C@@H]1[C@H](O)C[C@@H](O)C[C@H]1OCCCCC1CCCCC1=O (some centres not stated)	< 3.52
O=P(O)(O)O[C@@H]1[C@H](O)C[C@@H](O)C[C@H]1OCCCc1ccccc1	6.10
NS(=O)(=O)O[C@@H]1[C@H](O)C[C@@H](O)C[C@H]1OCCCCc1ccccc1O	< 3.52
CC(=O)NS(=O)(=O)O[C@@H]1[C@H](O)C[C@@H](O)C[C@H]1OCCCCc1ccccc1O	< 3.52
O=C1CCCCC1CCCCO[C@@H]1C[C@H](O)C[C@@H](O)[C@H]1OS(=O)(=O)O (some centres not stated)	4.00
NS(=O)(=O)O[C@@H]1[C@H](O)C[C@@H](O)C[C@H]1OCCCCC1CCCCC1=O (some centres not stated)	3.70
O=P(O)(O)O[C@@H]1[C@H](O)C[C@@H](O)C[C@H]1OCCCCc1ccccc1O	6.52
CC(C)OP(=O)(O)O[C@@H]1[C@H](O)C[C@@H](O)C[C@H]1OCCCCc1ccccc1O	4.30
CP(C)(=O)O[C@@H]1[C@H](O)C[C@@H](O)C[C@H]1OCCCCc1ccccc1O	< 3.52
O=S(=O)(O)O[C@@H]1[C@H](O)C[C@@H](O)C[C@H]1OCCCCc1ccccc1O	4.05

Biological target: T1, Inositol monophosphatase 1
Test: Compound was tested for inhibitory activity against myo-inositol-1-phosphatase; weak inhibitor

Compound	pIC50
O=C(O)CO[C@@H]1[C@H](O)C[C@@H](O)C[C@H]1OCCCCc1ccccc1O	< 3.52
